From patent US11098052B2, “4-azapodophylotoxins compounds” (Arizona Board of Regents on behalf of Arizona State …, priority 2016, dated 2021)
≈ marks a conversion by molar mass, not a printed value. Like-named read-outs stand apart in the source and are kept apart here.

Key:
[1] = tested on: P388 murine lymphocytic leukemia cell line; conditions: footnote c: See Ref 25; cited from earlier work
[2] = tested on: P388 murine lymphocytic leukemia cell line; assay: Murine P388 lymphocytic leukemia inhibitory activity; type: cell-based; conditions: Mus musculus
BXPC-3 (pancreas) = assay: Human cancer cell growth inhibition, sulforhodamine B assay, BXPC-3; type: cell-based; conditions: read-out: Growth Inhibition of Human Cancer Cell Lines (GI50), BXPC-3
Method: (§1) Cancer Cell Line Procedures. The human cancer cell growth inhibition data were determined using the standard sulforhodamine B assay of the US National Cancer Institute as previously described.^35 In short, cells in a 5% fetal bovine serum/RPMI1640 medium were inoculated in 96-well plates and incubated for 24 h. Next, serial dilutions of the samples were added. After 48 h, the plates were fixed with trichloroacetic acid, stained with sulforhodamine B, and read with an automated microplate reader. A growth inhibition of 50% (GI50 or the drug concentration causing a 50% reduction in the net protein increase) was determined from optical density data employing Immunosoft® software.

MCF-7 (breast) = assay: Human cancer cell growth inhibition, sulforhodamine B assay, MCF-7; type: cell-based; conditions: read-out: Growth Inhibition of Human Cancer Cell Lines (GI50), MCF-7
Method: as §1

SF-268 (CNS) = assay: Human cancer cell growth inhibition, sulforhodamine B assay, SF-268; type: cell-based; conditions: read-out: Growth Inhibition of Human Cancer Cell Lines (GI50), SF-268
Method: as §1

NCI-H460 (lung) = assay: Human cancer cell growth inhibition, sulforhodamine B assay, NCI-H460; type: cell-based; conditions: read-out: Growth Inhibition of Human Cancer Cell Lines (GI50), NCI-H460
Method: as §1

KM20L2 (colon) = assay: Human cancer cell growth inhibition, sulforhodamine B assay, KM20L2; type: cell-based; conditions: read-out: Growth Inhibition of Human Cancer Cell Lines (GI50), KM20L2
Method: as §1

DU-145 (prostate) = assay: Human cancer cell growth inhibition, sulforhodamine B assay, DU-145; type: cell-based; conditions: read-out: Growth Inhibition of Human Cancer Cell Lines (GI50), DU-145
Method: as §1

[3] = P388, read-out: Murine P388 Lymphocytic Leukemia Inhibitory Activity (ED50)

Row | SMILES | melting point | Murine P388 Lymphocytic Leukemia Inhibitory Activity (ED50) [1] [µg/mL] | IC50 [2, 3] [µg/mL] | GI50 (BXPC-3 (pancreas); BXPC-3, 48 h) [µg/mL] | GI50 (MCF-7 (breast); MCF7, 48 h) [µg/mL] | GI50 (SF-268 (CNS); SF-268, 48 h) [µg/mL] | GI50 (NCI-H460 (lung); NCI-H460, 48 h) [µg/mL] | GI50 (KM20L2 (colon); KM-20L2, 48 h) [µg/mL] | GI50 (DU-145 (prostate); DU-145, 48 h) [µg/mL] | IC50 ([2]; P388 cell line, read-out: Murine P388 Lymphocytic Leukemia Inhibitory Activity (ED50)) [µg/mL] | GI50 (BXPC-3 (pancreas); BXPC-3 pancreas, 48 h, sulforhodamine B) [µg/mL] | GI50 (MCF-7 (breast); MCF7, MCF-7 breast, 48 h, sulforhodamine B) [µg/mL] | GI50 (SF-268 (CNS); SF-268 CNS, 48 h, sulforhodamine B) [µg/mL] | GI50 (NCI-H460 (lung); NCI-H460 lung, 48 h, sulforhodamine B) [µg/mL] | GI50 (KM20L2 (colon); KM-20L2, KM20L2 colon, 48 h, sulforhodamine B) [µg/mL] | GI50 (DU-145 (prostate); DU-145 prostate, 48 h, sulforhodamine B) [µg/mL]
1 | COc1cc(C2C3=C(COC3=O)Nc3cc4c(cc32)OCO4)cc(OC)c1OC (centres unmarked) [Compound 15e, 6,7-Methylenedioxy-9-(3,4,5-trimethoxyphenyl)-4,9-dihydro-3H-furo[3,4-b]quinolin-1-one] | 273 to 275 °C | 0.0018 | – | – | – | – | – | – | – | – | – | – | – | – | – | –
2 | COc1cc(C2C3=C(COC3=O)N(CCN3CCOCC3)c3cc4c(cc32)OCO4)cc(OC)c1OC (centres unmarked) [Compound 22, 6,7-Methylenedioxy-4-(2-morpholin-4-yl-ethyl)-9-(3,4,5-trimethoxyphenyl)-4,9-dihydro-3H-furo[3,4-b]quinolin-1-one] | 186 to 189 °C | – | 2.6 (≈ 5.09 µM) | 3.5 (≈ 6.86 µM) | 0.89 (≈ 1.74 µM) | 2.6 (≈ 5.09 µM) | 3 (≈ 5.88 µM) | 2.5 (≈ 4.9 µM) | 2 (≈ 3.92 µM) | – | – | – | – | – | – | –
3 | COc1cc(C2C3=C(COC3=O)N(Cc3ccc(F)cc3)c3cc4c(cc32)OCO4)cc(OC)c1OC (centres unmarked) [Compound 23, 6,7-Methylenedioxy-4-(4-fluoro-benzyl)-9-(3,4,5-trimethoxyphenyl)-4,9-dihydro-3H-furo[3,4-b]quinolin-1-one] | 246 to 247 °C | – | 1.9 (≈ 3.76 µM) | 0.046 (≈ 0.091 µM) | 0.037 (≈ 0.0732 µM) | 0.03 (≈ 0.0593 µM) | 0.031 (≈ 0.0613 µM) | 0.033 (≈ 0.0653 µM) | 0.047 (≈ 0.093 µM) | – | – | – | – | – | – | –
4 | COc1cc(C2C3=C(COC3=O)N(C3CCCC3)c3cc4c(cc32)OCO4)cc(OC)c1OC (centres unmarked) [Compound 18, 6,7-Methylenedioxy-4-(cyclopentyl)-9-(3,4,5-trimethoxyphenyl)-4,9-dihydro-3H-furo[3,4-b]quinolin-1-one] | 221 to 223 °C | – | 15.3 (≈ 32.9 µM) | 0.083 (≈ 0.178 µM) | 0.045 (≈ 0.0967 µM) | 0.062 (≈ 0.133 µM) | 0.16 (≈ 0.344 µM) | 0.12 (≈ 0.258 µM) | 0.27 (≈ 0.58 µM) | – | – | – | – | – | – | –
5 | COc1cc(C2C3=C(COC3=O)N(CCN3CCCCC3)c3cc4c(cc32)OCO4)cc(OC)c1OC (centres unmarked) [Compound 21, 6,7-Methylenedioxy-4-(2-piperidin-1-yl-ethyl)-9-(3,4,5-trimethoxyphenyl)-4,9-dihydro-3H-furo[3,4-b]quinolin-1-one] | 170 °C (dec.) | – | – | – | – | – | – | – | – | 1.7 (≈ 3.34 µM) | 4.4 (≈ 8.65 µM) | > 10 | > 10 | > 10 | > 10 | > 10
6 | COc1cc(C2C3=C(COC3=O)N(CCc3ccc(F)cc3)c3cc4c(cc32)OCO4)cc(OC)c1OC (centres unmarked) [Compound 25, 6,7-Methylenedioxy-4-[2-(4-fluorophenyl)-ethyl]-9-(3,4,5-trimethoxyphenyl)-4,9-dihydro-3H-furo[3,4-b]quinolin-1-one] | 174 to 177 °C | – | 3.3 (≈ 6.35 µM) | 0.9 (≈ 1.73 µM) | 0.42 (≈ 0.808 µM) | 0.52 (≈ 1 µM) | 2.3 (≈ 4.43 µM) | 2.4 (≈ 4.62 µM) | 2.5 (≈ 4.81 µM) | – | – | – | – | – | – | –
7 | COc1cc(C2C3=C(COC3=O)N(CCc3ccccn3)c3cc4c(cc32)OCO4)cc(OC)c1OC (centres unmarked) [Compound 24, 6,7-Methylenedioxy-4-(2-pyridin-2-yl-ethyl)-9-(3,4,5-trimethoxyphenyl)-4,9-dihydro-3H-furo[3,4-b]quinolin-1-one] | 239 to 241 °C | – | 2.5 (≈ 4.97 µM) | 0.38 (≈ 0.756 µM) | 0.32 (≈ 0.637 µM) | 0.33 (≈ 0.657 µM) | 0.34 (≈ 0.677 µM) | 0.29 (≈ 0.577 µM) | 0.42 (≈ 0.836 µM) | – | – | – | – | – | – | –
8 | COc1cc(C2C3=C(COC3=O)N(CCCO)c3cc4c(cc32)OCO4)cc(OC)c1OC (centres unmarked) [Compound 14, 6,7-Methylenedioxy-4-(3-hydroxy-propyl)-9-(3,4,5-trimethoxyphenyl)-4,9-dihydro-3H-furo[3,4-b]quinolin-1-one] | 269 to 272 °C (dec.) | – | 0.28 (≈ 0.615 µM) | 0.48 (≈ 1.05 µM) | 0.34 (≈ 0.746 µM) | 0.36 (≈ 0.79 µM) | 0.33 (≈ 0.725 µM) | 0.38 (≈ 0.834 µM) | 0.49 (≈ 1.08 µM) | – | – | – | – | – | – | –
9 | COc1cc(C2C3=C(COC3=O)N(C3CCCCC3)c3cc4c(cc32)OCO4)cc(OC)c1OC (centres unmarked) [Compound 19, 6,7-Methylenedioxy-4-(cyclohexyl)-9-(3,4,5-trimethoxyphenyl)-4,9-dihydro-3H-furo[3,4-b]quinolin-1-one] | 235 to 237 °C | – | 3.4 (≈ 7.09 µM) | 0.17 (≈ 0.355 µM) | 0.052 (≈ 0.108 µM) | 0.066 (≈ 0.138 µM) | 0.27 (≈ 0.563 µM) | 0.24 (≈ 0.5 µM) | 0.27 (≈ 0.563 µM) | – | – | – | – | – | – | –
10 | COc1cc(C2C3=C(COC3=O)N(CCc3ccc([N+](=O)[O-])cc3)c3cc4c(cc32)OCO4)cc(OC)c1OC (centres unmarked) [Compound 27, 6,7-Methylenedioxy-4-[2-(4-nitrophenyl)-ethyl]-9-(3,4,5-trimethoxyphenyl)-4,9-dihydro-3H-furo[3,4-b]quinolin-1-one] | 188 to 190 °C | – | 34.8 (≈ 63.7 µM) | 0.39 (≈ 0.714 µM) | 0.08 (≈ 0.146 µM) | 0.2 (≈ 0.366 µM) | 0.3 (≈ 0.549 µM) | 0.26 (≈ 0.476 µM) | 0.3 (≈ 0.549 µM) | – | – | – | – | – | – | –
